The target in assay [1] is T1, RXRγ (Mus musculus, UniProt P28705).
T1 construct: expressed in transfected cells; host or cells: CV-1 (African green monkey kidney fibroblasts)
T1 sequence (P28705 1-463): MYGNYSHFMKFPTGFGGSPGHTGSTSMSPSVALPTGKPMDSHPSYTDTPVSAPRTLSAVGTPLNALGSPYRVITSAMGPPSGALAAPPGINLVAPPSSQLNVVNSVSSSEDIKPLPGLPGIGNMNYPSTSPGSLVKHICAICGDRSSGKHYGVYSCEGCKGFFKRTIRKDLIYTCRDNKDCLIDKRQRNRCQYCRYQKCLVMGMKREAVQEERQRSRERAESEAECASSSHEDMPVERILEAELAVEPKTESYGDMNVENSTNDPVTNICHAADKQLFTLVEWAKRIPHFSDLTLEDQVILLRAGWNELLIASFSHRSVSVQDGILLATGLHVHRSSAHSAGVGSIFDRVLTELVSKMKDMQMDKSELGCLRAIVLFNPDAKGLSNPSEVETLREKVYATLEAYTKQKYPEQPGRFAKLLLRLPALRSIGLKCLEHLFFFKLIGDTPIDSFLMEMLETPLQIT
The experiment in a line: Receptor binding, RXRγ. The note with it: tritiated retinoid competition.

The target of assay [2] is T2, RARβ (Homo sapiens, UniProt P10826).
T2 sequence (P10826 1-448 isoform P10826-2): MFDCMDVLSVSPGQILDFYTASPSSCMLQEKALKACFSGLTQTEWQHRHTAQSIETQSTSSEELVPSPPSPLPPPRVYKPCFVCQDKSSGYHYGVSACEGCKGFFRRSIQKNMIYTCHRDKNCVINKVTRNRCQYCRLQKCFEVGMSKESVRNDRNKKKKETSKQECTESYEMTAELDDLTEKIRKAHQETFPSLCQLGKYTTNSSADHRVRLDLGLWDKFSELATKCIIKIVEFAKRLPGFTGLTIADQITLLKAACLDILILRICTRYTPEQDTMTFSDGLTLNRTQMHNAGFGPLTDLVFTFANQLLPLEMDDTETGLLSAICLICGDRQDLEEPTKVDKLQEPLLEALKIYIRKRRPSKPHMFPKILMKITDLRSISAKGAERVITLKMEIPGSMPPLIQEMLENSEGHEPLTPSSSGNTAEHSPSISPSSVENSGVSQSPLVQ
The experiment in a line: Receptor binding, RARβ. The note with it: tritiated retinoid competition.

Assay [3] addresses T3, RXRα (Homo sapiens, UniProt P19793).
T3 sequence (P19793 1-462): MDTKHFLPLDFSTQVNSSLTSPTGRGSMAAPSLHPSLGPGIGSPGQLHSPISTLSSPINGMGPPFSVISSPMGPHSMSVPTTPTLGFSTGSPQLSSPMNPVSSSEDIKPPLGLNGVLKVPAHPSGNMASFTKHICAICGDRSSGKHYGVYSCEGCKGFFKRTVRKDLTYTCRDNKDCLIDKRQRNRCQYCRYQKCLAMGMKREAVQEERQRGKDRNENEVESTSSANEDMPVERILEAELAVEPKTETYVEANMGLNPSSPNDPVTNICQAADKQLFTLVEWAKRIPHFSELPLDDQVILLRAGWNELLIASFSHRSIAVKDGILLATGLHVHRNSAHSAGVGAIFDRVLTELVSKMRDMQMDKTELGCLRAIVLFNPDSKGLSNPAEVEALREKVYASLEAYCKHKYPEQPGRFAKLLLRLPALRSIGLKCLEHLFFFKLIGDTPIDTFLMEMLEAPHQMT
Nature of the assay: Receptor binding, RXRα. Conditions: tritiated retinoid competition.

For assay [4], the system named is RAR receptors. Nature of the assay: Co-transfection assay, RAR subfamily (summary in words). The assay is classed as cell-based. Conditions: CV-1 cells. On the procedure: Utilizing the "cis-trans" or "co-transfection" assay described by Evans et al., Science, 240:889-95 (May 13, 1988), the disclosure of which is herein incorporated by reference, the retinoid compounds of the present invention were tested and found to have strong, specific activity as either selective RXR agonists, or as pan-agonist activators of both RAR and RXR receptors. This assay is described in further detail in U.S. Pat. Nos. 4,981,784 and 5,071,773, the disclosures of which are incorporated herein by reference.
In the co-transfection assay, a cloned cDNA for an IR (e.g., human RARα, RARβ, RXRγ) under the control of a constitutive promoter (e.g., the SV 40 promoter) is introduced by transfection (a procedure to induce cells to take up foreign genes) into a background cell substantially devoid of endogenous IRs. This introduced gene directs the recipient cells to make the IR protein of interest. A second gene is also introduced (co-transfected) into the same cells in conjunction with the IR gene. […]
The co-transfection assay can detect small molecule agonists or antagonists of target IRs. […] This activity can be conveniently measured, e.g., by increasing luciferase production, which reflects compound-dependent, IR-mediated increases in reporter transcription. […]

pKd: −log10 of the molar value. A value given as a limit tells only on which side of the number the result lay.

Usually pKd stands for the Kd on a negative log10 scale, so that one unit is a factor of ten. Lower therefore signals a high Kd. Take `CC(/C=C/CC1(c2ccc3c(c2)C(C)(C)CCC3(C)C)CC1)=C\C(=O)O` [Compound 101, (2E, 4E)-6-[1-(5,5,8,8-Tetramethyl-5,6,7,8-tetrahydronaphtha-len-2-yl)cyclopropanyl]-3-methyl hexadienoic acid]: the pKd in assay [1] was 8.10; in assay [2] it was 6.33; in assay [3], 8.70.

Regarding `CC(/C=C/CC1(c2cc(C(C)(C)C)cc3c2CCC3(C)C)CC1)=C\C(=O)O` [Compound 107, (2E, 4E)-6-[1-(6-t-butyl-1,1-dimethyl-indan-4-yl)-cyclopropyl]-3-methyl hexadienoic acid], the “activity for the RAR receptors” value in assay [4] is on record as “no activity at all”. The pKd in assay [1] is 7.66; in assay [2], less than 5.30; in assay [3], 8.22.

For the molecule `CC(/C=C/CC1(c2ccc3c(c2)C(C)(C)CCC3(C)C)CCCC1)=C\C(=O)O` [Compound 108, (2E, 4E)-6-[(5,5,8,8-Tetramethyl-5,6,7,8-tetrahydronaphtha-len-2-yl)cyclopentane-1-yl]-3-methyl hexadienoic acid], the “activity for the RAR receptors” value in assay [4] is listed as “no activity at all”. The pKd in assay [1] was 6.89; in assay [2], less than 5.30; in assay [3] it was 7.39.
